From PubChem BioAssay (NCI)
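Grown in 96-well plates, cells were treated for 48 hours with each compound at five concentrations. Insufficient inhibition: endpoint recorded as highest concentration tested. The concentration for full growth arrest is given as TGI.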 Where a SMILES comes first, the peptide text is derived from it. The star is where a group is joined. Boc = CC(C)(C)OC(=O)*; OBn = c1ccc(CO*)cc1

Key:
Experiment in all cases: NCI-60 cell line screen, 48 h
SR leukemia = tested on: SR leukemia
DU-145 prostate = tested on: DU-145 prostate
NCI-H522 lung = tested on: NCI-H522 lung
HOP-92 NSCLC = tested on: HOP-92 NSCLC
KM12 colon = tested on: KM12 colon
A498 renal = tested on: A498 renal
K-562 leukemia = tested on: K-562 leukemia
MOLT-4 leukemia = tested on: MOLT-4 leukemia
TK-10 renal = tested on: TK-10 renal
A549 NSCLC = tested on: A549 NSCLC
UO-31 renal = tested on: UO-31 renal
RPMI-8226 leukemia = tested on: RPMI-8226 leukemia
PC-3 prostate = tested on: PC-3 prostate
BT-549 breast = tested on: BT-549 breast
SF-268 CNS = tested on: SF-268 CNS
SF-295 CNS = tested on: SF-295 CNS
SF-539 CNS = tested on: SF-539 CNS
T-47D breast = tested on: T-47D breast
COLO 205 colon = tested on: COLO 205 colon
HCC-2998 colon = tested on: HCC-2998 colon

Row | Compound | TGI (SR leukemia) | TGI (DU-145 prostate) | TGI (NCI-H522 lung) | TGI (HOP-92 NSCLC) | TGI (KM12 colon) | TGI (A498 renal) | TGI (K-562 leukemia) | TGI (MOLT-4 leukemia) | TGI (TK-10 renal) | TGI (A549 NSCLC) | TGI (UO-31 renal) | TGI (RPMI-8226 leukemia) | TGI (PC-3 prostate) | TGI (BT-549 breast) | TGI (SF-268 CNS) | TGI (SF-295 CNS) | TGI (SF-539 CNS) | TGI (T-47D breast) | TGI (COLO 205 colon) | TGI (HCC-2998 colon)
1 | CC(C)CC(NC(=O)C(Cc1ccccc1)NC(=O)C(Cc1ccccc1)NC(=O)OC(C)(C)C)C(=O)OCc1ccccc1 (stereo not drawn) (Boc-Phe-Phe-Leu-OBn; configuration not given here) | > 100 µM | > 100 µM | > 100 µM | > 100 µM | > 100 µM | > 100 µM | > 100 µM | > 100 µM | > 100 µM | > 100 µM | > 100 µM | > 100 µM | > 100 µM | > 100 µM | > 100 µM | > 100 µM | > 100 µM | > 100 µM | > 100 µM | 
2 | COc1cccc(C=C2N=C(C)N(n3c(-c4ccccc4)nc4ccccc4c3=O)C2=O)c1 | > 100 µM | > 100 µM | > 100 µM |  | > 100 µM | > 100 µM | > 100 µM | > 100 µM | > 100 µM | > 100 µM | > 100 µM | > 100 µM | > 100 µM | > 100 µM | > 100 µM | > 100 µM | > 100 µM | > 100 µM | > 100 µM | > 100 µM
3 | Cc1ccc(NC(=O)/C(=N\NC(N)=O)c2c(O)c3ccccc3[nH]c2=O)cc1 | > 100 µM | > 100 µM |  | > 100 µM | > 100 µM | > 100 µM | > 100 µM | > 100 µM |  | > 100 µM | > 100 µM | > 100 µM | > 100 µM | > 100 µM | > 100 µM | > 100 µM | > 100 µM | > 100 µM | > 100 µM | > 100 µM
4 | Cc1nn(-c2ccccc2)c2nc3ccc(Cl)cc3c(-c3ccccc3)c12 | > 100 µM | > 100 µM | > 100 µM | > 100 µM | > 100 µM |  |  | > 100 µM | > 100 µM | > 100 µM | > 100 µM | > 100 µM | > 100 µM | > 100 µM | > 100 µM | > 100 µM |  | > 100 µM | > 100 µM | > 100 µM
5 | Cc1ccc([N+](=O)[O-])cc1S(=O)(=O)Nc1ccc(C2=NN(S(=O)(=O)c3cc([N+](=O)[O-])ccc3C)C(c3ccco3)C2)cc1 (stereo not drawn) | > 100 µM | > 100 µM | > 100 µM | 47.7 µM | > 100 µM |  | > 100 µM | > 100 µM |  |  | > 100 µM | > 100 µM | > 100 µM | 97.5 µM | > 100 µM | > 100 µM | > 100 µM | 92.9 µM | > 100 µM | 
6 | C[N+](C)(C)C(C1=CCCC1=O)c1ccccc1 (stereo not drawn) | 44.5 µM | > 100 µM | 35 µM | 85.3 µM | 49.1 µM | > 100 µM | > 100 µM | 58.3 µM | > 100 µM | > 100 µM | > 100 µM | 44.2 µM | > 100 µM | 95.5 µM | 60.1 µM | > 100 µM | > 100 µM | > 100 µM | > 100 µM | 
